Where a SMILES comes first, the peptide text is derived from it. Where no end group is shown, it is not given here. Side-chain parts run from the residue outwards. [ ]: non-standard residue; d: D form. The star is where a group is joined. DOTA = O=C(O)CN1CCN(CC(=O)O)CCN(CC(=O)*)CCN(CC(=O)O)CC1; Palmitoyl = CCCCCCCCCCCCCCCC(=O)*; Myristoyl = CCCCCCCCCCCCCC(=O)*; Glu = glutamate linker
Legend:
[1] = test system: CXCR4-tropic X4-HIV-1 (NL4-3); format: cell-based
CXCR4 = target: T1, CXCR4 (Homo sapiens, UniProt P61073); assay: Antibody competition assay (12G5-assay) on SupT1 cells; format: binding
T1 construct: endogenous in cells; host or cells: SupT1 cells
Experimental: Second, the activity was tested by an antibody competition assay (FIG. 2). Values determined by the competition assay represent the potency of a compound to compete with an antibody that specifically binds to the binding pocket (ECL2) of CXCR4. […] To the right of the diagrams, an assignment of the curves to the tested peptides is explained. […] Three independent experiments were carried out for each peptide in each assay. The error bars refer to the standard deviation.
Antibody competition assay. Competition of compounds with antibody binding was performed on SupT1 cells. For that cells were washed in PBS containing 1% FCS and 50,000 cells were then seeded per well in a 96 V-well plate. Buffer was removed and plates were precooled at 4° C. Compounds were diluted in PBS and antibody (clone 12G5, APC labelled) was diluted in PBS containing 1% FCS. The antibody was used at a concentration closed to its determined Kd. 15 μl compounds were then added to the cells and 15 μl antibody immediately afterwards. Plates were incubated at 4° C. in the dark for 2 hours. Afterwards cells were washed twice with PBS containing 1% FCS and fixed with 2% PFA. Antibody binding was analyzed by flow cytometry (FACS CytoFLEX; Beckman Coulter®).

[2] = mouse, in vivo, iv, 4 h

T1 sequence (P61073 whole entry): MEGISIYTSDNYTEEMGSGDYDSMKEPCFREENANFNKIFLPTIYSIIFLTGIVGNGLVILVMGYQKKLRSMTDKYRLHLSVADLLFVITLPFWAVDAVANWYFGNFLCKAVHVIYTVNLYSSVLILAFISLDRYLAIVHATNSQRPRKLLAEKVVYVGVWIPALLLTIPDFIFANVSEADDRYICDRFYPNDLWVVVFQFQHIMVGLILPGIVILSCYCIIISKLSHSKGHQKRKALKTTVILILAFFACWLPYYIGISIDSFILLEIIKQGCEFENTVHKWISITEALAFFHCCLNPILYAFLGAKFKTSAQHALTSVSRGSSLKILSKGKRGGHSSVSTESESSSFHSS

Compound | anti-HIV-1 activity (in words) [1] | antibody competition / binding to CXCR4 (in words) (CXCR4) | remaining activity in plasma in vivo 4 hours post injection [2] | IC50 (CXCR4)
SC037: PVP-coupled peptide JM #21, average molecular mass 20 kDa (ILRWSRKLPCVS; also: PVP-coupled, average 20 kDa) | comparable activity as JM #21 | comparable activity as JM #21 | – | –
SC066: PEG-coupled JM #21, two peptide copies on one end of PEG, average molecular mass 20 kDa (ILRWSRKLPCVS; also: PEG-coupled, two peptide copies on one end, average 20 kDa) | comparable to the state of the art CXCR4-antagonist AMD3100 and JM #21 | even higher activity than JM #21 | – | –
SC069: DSPE-coupled derivative (via PEG), two peptide copies on one end (ILRWSRKLPCVS; also: DSPE-coupled via PEG, two peptide copies on one end) | higher activity than cholesterol-coupled SC043 | higher activity than cholesterol-coupled SC043 | – | –
ILRWSRK(Glu-Myr)LPCVS (ILRWSRK([Glu-Myristoyl])LPCVS) [JM #204] | – | – | lost | –
SC001: DSPE-coupled derivative (via PEG), one peptide copy (ILRWSRKLPCVS; also: DSPE conjugate via PEG, one peptide copy, site not given here) | higher activity than cholesterol-coupled SC043 | higher activity than cholesterol-coupled SC043 | – | –
JM #206: JM #21 with DOTA conjugated via an additional lysine coupled to the C-terminal amino acid of the peptide (ILRWSRKLPCVSK(DOTA)) | suppressed HIV-1 infection with similar potency as the non-conjugated peptide | displaced the antibody as efficiently as the non-conjugated JM #21 | – | –
CCCCCCCCCCCCCCCC(=O)NCCCC[C@H](NC(=O)[C@H](CCCCN)NC(=O)[C@H](CO)NC(=O)[C@H](Cc1c[nH]c2ccccc12)NC(=O)[C@H](CCCNC(=N)N)NC(=O)[C@@H](NC(=O)[C@@H](N)[C@@H](C)CC)C(C)C)C(=O)N[C@H](C(=O)N1CCC[C@H]1C(N)=O)C(C)C [JM #167, IVRWSKK(Pal)VP-NH2] (H-IVRWSKK(Palmitoyl)VP-NH2) | – | – | – | 2 nM
SC042: PVA-coupled peptide JM #21, average molecular mass 20 kDa (ILRWSRKLPCVS; also: PVA-coupled, average 20 kDa) | comparable activity as JM #21 | comparable activity as JM #21 | – | –
CCCCCCCCCCCCCCCC(=O)NCCCC[C@H](NC(=O)[C@H](CCCNC(=N)N)NC(=O)[C@H](CO)NC(=O)[C@H](Cc1c[nH]c2ccccc12)NC(=O)[C@H](CCCNC(=N)N)NC(=O)[C@H](CCSC)NC(=O)[C@H](N)CC(C)C)C(=O)N[C@@H](CCSC)C(=O)N1CCC[C@H]1C(N)=O [JM #178, d-LMRWSRK(Pal)MP-NH2] (H-[dL]MRWSRK(Palmitoyl)MP-NH2; N-terminus assumed) | strongly increased anti-HIV-1 activity | – | – | 2 nM
JM #207: JM #122 with DOTA conjugated via an additional lysine coupled to the C-terminal amino acid of the peptide (ILRWSRKLPSVSK(DOTA)) | suppressed HIV-1 infection with similar potency as the non-conjugated peptide | displaced the antibody as efficiently as the non-conjugated JM #21 | – | –

From patent US20230131339A1, “EPI-X4 BASED PEPTIDES AND DERIVATIVES THEREOF” (Universitaet Ulm, priority 2020, published 2023)
